The results in this text go back to ChEMBL document CHEMBL2150986, “Synthesis and biological evaluation of 1-benzylidene-3,4-dihydronaphthalen-2-one as a new class of microtubule-targeting agents” (J Med Chem, 2012).

The structures appear in SMILES notation.

The subject of assay [1] is CCRF-CEM. In words: Cytotoxicity against human CEM cells after 72 hrs by MTT assay. The class given is functional, cell-based. A general note: Formazan colour is commonly taken as a measure of viable cells.
Assay [2] deals with HCT-116. Nature of the assay: cells. The note with it: Homo sapiens, HCT-116, 72 h.
Assay [3] relates to MDA-MB-435. In words: cells. Conditions: Homo sapiens, MDA-MB-435, 72 h.
Description: Cytotoxicity against human MDA-MB-435 cells after 72 hrs by MTT assay

In general, IC50 refers to the concentration that inhibits the measured activity by half. Low readings indicate greater potency in that assay, high ones weaker potency in that assay.

Consider `COc1ccc2c(c1)/C(=C\c1ccc(Br)cc1)C(=O)CC2`, for which the IC50 in assay [1], in assay [2] and in assay [3] was above 10 µM each time.

For `COc1cccc2c1CCC(=O)/C2=C/c1ccc(C)cc1`, the IC50 in assay [1], in assay [2] and in assay [3] was above 10 µM in each case.

As to `COc1ccc2c(c1)CCC(=O)/C2=C/c1ccc([N+](=O)[O-])cc1`, the IC50 in assay [1] turned out to be 0.68 µM; in assay [2], 2.23 µM; in assay [3], 0.54 µM.

Turning to `COc1cccc2c1CCC(=O)/C2=C/c1ccc(C(F)(F)F)cc1`, the figures for the IC50 in assay [1], in assay [2] and in assay [3] were above 10 µM, 5.38 µM and 5.89 µM, respectively.
